Laboratory results reported in PubChem BioAssay (NCI).
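Results reflect a 48-hour exposure of cells in 96-well plates to compound at five concentrations. TGI: concentration producing complete growth inhibition.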

Key:
Test in all cases: NCI tumour cell line growth inhibition, 48 h
OVCAR-8 ovarian = system: OVCAR-8 ovarian
NCI-H226 lung = system: NCI-H226 lung
SR leukemia = system: SR leukemia
786-0 renal = system: 786-0 renal
OVCAR-4 ovarian = system: OVCAR-4 ovarian
CCRF-CEM leukemia = system: CCRF-CEM leukemia
MOLT-4 leukemia = system: MOLT-4 leukemia
UACC-62 melanoma = system: UACC-62 melanoma
A498 renal = system: A498 renal
MDA-MB-231 breast = system: MDA-MB-231 breast
NCI-H23 lung = system: NCI-H23 lung
SK-MEL-2 melanoma = system: SK-MEL-2 melanoma
NCI-H522 lung = system: NCI-H522 lung
HS 578T breast = system: HS 578T breast
OVCAR-3 ovarian = system: OVCAR-3 ovarian
HCC-2998 colon = system: HCC-2998 colon
PC-3 prostate = system: PC-3 prostate
OVCAR-5 ovarian = system: OVCAR-5 ovarian
SNB-19 CNS = system: SNB-19 CNS
SK-OV-3 ovarian = system: SK-OV-3 ovarian
UO-31 renal = system: UO-31 renal
NCI-H460 lung = system: NCI-H460 lung
ACHN renal = system: ACHN renal
MDA-N = system: MDA-N
HOP-92 NSCLC = system: HOP-92 NSCLC
IGROV1 ovarian = system: IGROV1 ovarian
MCF7 breast = system: MCF7 breast
M14 melanoma = system: M14 melanoma
U251 CNS = system: U251 CNS
MDA-MB-435 = system: MDA-MB-435
HCT-116 colon = system: HCT-116 colon
A549 NSCLC = system: A549 NSCLC
HCT-15 colon = system: HCT-15 colon
CAKI-1 renal = system: CAKI-1 renal
RPMI-8226 leukemia = system: RPMI-8226 leukemia
BT-549 breast = system: BT-549 breast
SF-295 CNS = system: SF-295 CNS
UACC-257 melanoma = system: UACC-257 melanoma
KM12 colon = system: KM12 colon
SF-539 CNS = system: SF-539 CNS
MALME-3M melanoma = system: MALME-3M melanoma
SW-620 colon = system: SW-620 colon
T-47D breast = system: T-47D breast
COLO 205 colon = system: COLO 205 colon
EKVX NSCLC = system: EKVX NSCLC
K-562 leukemia = system: K-562 leukemia
TK-10 renal = system: TK-10 renal
SK-MEL-5 melanoma = system: SK-MEL-5 melanoma
HT29 colon = system: HT29 colon
SN12C renal = system: SN12C renal
NCI/ADR-RES ovarian = system: NCI/ADR-RES ovarian
SF-268 CNS = system: SF-268 CNS
LOX IMVI melanoma = system: LOX IMVI melanoma
HOP-62 NSCLC = system: HOP-62 NSCLC

CCOC(=O)Nn1cnnc1Cc1ccccc1
TGI (OVCAR-8 ovarian): > 100 µM
TGI (NCI-H226 lung): > 100 µM
TGI (SR leukemia): > 100 µM
TGI (786-0 renal): > 100 µM
TGI (OVCAR-4 ovarian): > 100 µM
TGI (CCRF-CEM leukemia): > 100 µM
TGI (MOLT-4 leukemia): > 100 µM
TGI (UACC-62 melanoma): > 100 µM
TGI (A498 renal): > 100 µM
TGI (MDA-MB-231 breast): > 100 µM
TGI (NCI-H23 lung): > 100 µM
TGI (SK-MEL-2 melanoma): > 100 µM
TGI (NCI-H522 lung): > 100 µM
TGI (HS 578T breast): 81.4 µM
TGI (OVCAR-3 ovarian): > 100 µM
TGI (HCC-2998 colon): > 100 µM
TGI (PC-3 prostate): > 100 µM
TGI (OVCAR-5 ovarian): > 100 µM
TGI (SNB-19 CNS): > 100 µM
TGI (SK-OV-3 ovarian): > 100 µM
TGI (UO-31 renal): > 100 µM
TGI (NCI-H460 lung): > 100 µM
TGI (ACHN renal): > 100 µM
TGI (MDA-N): > 100 µM
TGI (HOP-92 NSCLC): > 100 µM
TGI (IGROV1 ovarian): > 100 µM
TGI (MCF7 breast): > 100 µM
TGI (M14 melanoma): > 100 µM
TGI (U251 CNS): > 100 µM
TGI (MDA-MB-435): > 100 µM
TGI (HCT-116 colon): > 100 µM
TGI (A549 NSCLC): > 100 µM
TGI (HCT-15 colon): > 100 µM
TGI (CAKI-1 renal): > 100 µM
TGI (RPMI-8226 leukemia): > 100 µM
TGI (BT-549 breast): > 100 µM
TGI (SF-295 CNS): > 100 µM
TGI (UACC-257 melanoma): > 100 µM
TGI (KM12 colon): > 100 µM
TGI (SF-539 CNS): > 100 µM
TGI (MALME-3M melanoma): > 100 µM
TGI (SW-620 colon): > 100 µM
TGI (T-47D breast): > 100 µM
TGI (COLO 205 colon): > 100 µM
TGI (EKVX NSCLC): > 100 µM
TGI (K-562 leukemia): > 100 µM
TGI (TK-10 renal): > 100 µM
TGI (SK-MEL-5 melanoma): > 100 µM
TGI (HT29 colon): > 100 µM
TGI (SN12C renal): > 100 µM
TGI (NCI/ADR-RES ovarian): > 100 µM
TGI (SF-268 CNS): > 100 µM
TGI (LOX IMVI melanoma): > 100 µM
TGI (HOP-62 NSCLC): > 100 µM
